The target in test [1] is Recombinant human ENPP1 protein (Homo sapiens (Human), UniProt P22413). In words: ENPP1 cGAMP Biochemical Assay. The settings on record: 0.5 nM ENPP1, 1000 nM 2′3′-cGAMP substrate, TR-FRET. The protocol: ENPP1 cGAMP Biochemical Assay
Compounds were added to 384 well Proxiplate (PerkinElmer, Waltham MA) at 100 nl/well from DMSO stocks using Echo (Labcyte, San Jose CA). Recombinant human ENPP1 protein (R&D Systems, Minneapolis MN) was prepared in assay buffer (50 mM Tris pH7.5, 1 mM TCEP pH7.0, 2 mM MgCl2 and 0.005% Tween20) and added at 10 μl/well. The plate was sealed, centrifuged at 1000 rpm for 1 minute and incubated at room temperature for 30 minutes before 5 μl substrate 2′3′-cGAMP (R&D Systems, Minneapolis MN) in assay buffer was added to each well to a final concentration of 0.5 nM ENPP1 and 1000 nM 2′3′-cGAMP. The plate was sealed and centrifuged at 1000 rpm for 1 minute again. After incubation at 25° C. for 60 minutes, Terbium labelled AMP/GMP antibody and AMP/GMP HiLyte647 Tracer (BellBrook Labs, Fitchburg WI) in detection buffer (50 mM Tris pH7.5, 20 mM EDTA and 0.1% Prionex) were added to the reaction mixture to a final concentration of 2 nM (5 μl/well). The assay plate was incubated at room temperature for 120 minutes. TR-FRET signal was detected using Envision (PerkinElmer, Waltham MA).
In general terms: In TR-FRET formats the signal depends on donor and acceptor labels being close together.

For test [2], the target named is Recombinant human ENPP3 protein (Homo sapiens (Human), UniProt O14638). In words: ENPP3 cGAMP Biochemical Assay. The note with it: 70.5 nM ENPP3, 120 μM 2′3′-cGAMP substrate, TR-FRET. On the procedure: ENPP3 cGAMP Biochemical Assay
Recombinant human ENPP3 protein, sequence (O14638 whole entry): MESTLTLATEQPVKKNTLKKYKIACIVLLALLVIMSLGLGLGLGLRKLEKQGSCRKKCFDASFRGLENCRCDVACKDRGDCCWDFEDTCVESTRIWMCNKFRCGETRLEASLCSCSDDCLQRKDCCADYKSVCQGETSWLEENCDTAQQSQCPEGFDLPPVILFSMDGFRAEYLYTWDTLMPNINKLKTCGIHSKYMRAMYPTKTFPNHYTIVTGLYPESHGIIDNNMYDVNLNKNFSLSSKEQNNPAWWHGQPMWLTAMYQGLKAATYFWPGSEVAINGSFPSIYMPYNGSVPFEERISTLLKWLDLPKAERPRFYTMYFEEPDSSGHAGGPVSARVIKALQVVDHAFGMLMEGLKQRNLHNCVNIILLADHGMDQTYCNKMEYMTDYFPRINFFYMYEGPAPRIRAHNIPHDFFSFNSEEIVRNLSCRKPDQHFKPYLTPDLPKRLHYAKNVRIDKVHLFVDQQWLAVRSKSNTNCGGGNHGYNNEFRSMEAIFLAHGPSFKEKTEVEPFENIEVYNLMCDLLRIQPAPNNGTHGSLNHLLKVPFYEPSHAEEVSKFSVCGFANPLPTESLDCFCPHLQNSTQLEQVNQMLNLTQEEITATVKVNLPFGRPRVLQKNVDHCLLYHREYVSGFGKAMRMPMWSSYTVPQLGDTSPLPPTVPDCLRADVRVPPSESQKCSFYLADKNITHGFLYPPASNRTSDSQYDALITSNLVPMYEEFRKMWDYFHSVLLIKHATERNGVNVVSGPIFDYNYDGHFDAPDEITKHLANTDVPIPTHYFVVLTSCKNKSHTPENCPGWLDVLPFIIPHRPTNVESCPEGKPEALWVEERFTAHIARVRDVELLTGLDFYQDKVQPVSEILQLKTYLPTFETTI
Compounds were added to 384 well Proxiplate (PerkinElmer, Waltham MA) at 100 nl/well from DMSO stocks using Echo (Labcyte, San Jose CA). Recombinant human ENPP3 protein (Acro Biosystems, Newwark DE) was prepared in assay buffer (50 mM Tris pH7.5, 1 mM TCEP pH7.0, 2 mM MgCl2, 2 mM CaCl2), 2 mM ZnCl2 and 0.005% Tween20) and added at 2 μl/well. The plate was sealed, centrifuged at 1000 rpm for 1 minute and incubated at room temperature for 30 minutes before 2 μl substrate 2′3′-cGAMP (R&D Systems, Minneapolis MN) in assay buffer was added to each well to a final concentration of 70.5 nM ENPP3 and 120 μM 2′3′-cGAMP. The plate was sealed and centrifuged at 1000 rpm for 1 minute again. After incubation at 25° C. for 60 minutes, Terbium labelled AMP/GMP antibody and AMP/GMP HiLyte647 Tracer (BellBrook Labs, Fitchburg WI) in detection buffer (50 mM Tris pH7.5, 20 mM EDTA and 0.1% Prionex) were added to the reaction mixture to a final concentration of 475 nM and 3 nM respectively. The assay plate was incubated at room temperature for 120 minutes. TR-FRET signal was detected using Envision (PerkinElmer, Waltham MA).

Each structure is given as a SMILES string.

Recombinant human ENPP1 protein, sequence (P22413 whole entry): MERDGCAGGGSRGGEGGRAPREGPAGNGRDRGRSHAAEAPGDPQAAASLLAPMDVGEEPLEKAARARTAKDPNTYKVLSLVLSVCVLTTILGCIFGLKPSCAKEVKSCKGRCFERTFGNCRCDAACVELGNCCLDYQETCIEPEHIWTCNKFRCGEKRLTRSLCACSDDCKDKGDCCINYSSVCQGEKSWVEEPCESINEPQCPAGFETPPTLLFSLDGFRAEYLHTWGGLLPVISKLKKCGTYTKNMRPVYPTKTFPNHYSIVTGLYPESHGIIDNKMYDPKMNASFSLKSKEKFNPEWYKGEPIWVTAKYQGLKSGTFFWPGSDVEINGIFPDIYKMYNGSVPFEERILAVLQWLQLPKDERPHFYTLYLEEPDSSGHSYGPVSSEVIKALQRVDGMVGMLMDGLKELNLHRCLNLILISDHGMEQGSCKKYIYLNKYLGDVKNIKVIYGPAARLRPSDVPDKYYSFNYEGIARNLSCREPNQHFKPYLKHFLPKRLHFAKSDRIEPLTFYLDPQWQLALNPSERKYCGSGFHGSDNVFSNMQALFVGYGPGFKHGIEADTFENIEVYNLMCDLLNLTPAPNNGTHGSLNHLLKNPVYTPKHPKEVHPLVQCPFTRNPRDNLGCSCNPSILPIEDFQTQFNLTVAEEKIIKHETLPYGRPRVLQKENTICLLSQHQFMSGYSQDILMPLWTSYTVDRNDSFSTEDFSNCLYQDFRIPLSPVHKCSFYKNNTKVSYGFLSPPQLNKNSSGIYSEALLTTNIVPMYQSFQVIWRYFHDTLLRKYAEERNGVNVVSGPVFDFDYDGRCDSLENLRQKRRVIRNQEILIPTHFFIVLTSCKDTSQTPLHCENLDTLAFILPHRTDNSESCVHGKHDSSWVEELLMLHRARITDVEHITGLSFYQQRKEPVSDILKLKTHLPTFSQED

As to `C#CCn1nc(Cl)c2c(NCc3ccc(S(=N)(=O)NC)cc3)ccnc21` (stereo in doubt) [Compound 10B, (R)-4-(((3-chloro-1-(prop-2-yn-1-yl)-1H-pyrazolo[3,4-b]pyridin-4-yl)amino)methyl)-N-methylbenzenesulfonimidamide], the IC50 (usually the midpoint of a concentration-inhibition curve) is below 0.01 µM in test [1] and at least 1 µM in test [2].

`C#CCn1nc(Cl)c2c(NCc3ccc(S(=N)(=O)NC)cc3)ccnc21` (stereo in doubt) [Compound 10C, (S)-4-(((3-chloro-1-(prop-2-yn-1-yl)-1H-pyrazolo[3,4-b]pyridin-4-yl)amino)methyl)-N-methylbenzenesulfonimidamide]: the concentration for half-maximal inhibition (IC50) is below 0.01 µM in test [1] and 0.01 to 0.1 µM in test [2]. As for `CCn1nc(Cl)c2c(NCC3CCN(S(=N)(N)=O)CC3)ccnc21` (stereo not shown) [Compound 1C, 4-(((3-chloro-1-ethyl-1H-pyrazolo[3,4-b]pyridin-4-yl)amino)methyl)piperidine-1-sulfonimidamide], the figures for the IC50 in test [1] and in test [2] were 0.01 to 0.1 µM and at least 1 µM, respectively.

Take `CCn1ncc2c(NCc3ccc(S(=N)(N)=O)cc3)cc(-c3ncc[nH]3)nc21` (stereo not shown) [Compound 2C, 4-(((1-ethyl-6-(1H-imidazol-2-yl)-1H-pyrazolo [3,4-b]pyridin-4-yl)amino)methyl)benzene sulfonimidamide]: the IC50 in test [1] and in test [2] was 0.1 to 1 µM throughout. Turning to `CCn1ncc2c(NCc3ccc(S(=N)(N)=O)cc3)ncnc21` (stereo not shown) [Compound 2D, 4-(((1-ethyl-1H-pyrazolo[3,4-d]pyrimidin-4-yl)amino)methyl)benzenesulfonimidamide], the IC50 in test [1] is 0.01 to 0.1 µM; in test [2], at least 1 µM.

For `C#CCn1nc(Cl)c2c(NCc3c(F)cc(S(N)(=O)=NC)cc3F)ccnc21` (stereo not shown) [Compound 3B, 4-(((3-chloro-1-(prop-2-yn-1-yl)-1H-pyrazolo[3,4-b]pyridin-4-yl)amino)methyl)-3,5-difluoro-N-methylbenzenesulfonimidamide], the IC50 in test [1] was below 0.01 µM; in test [2], 0.1 to 1 µM. For `C#CCn1nc(Cl)c2c(N(C)Cc3ccc(S(N)(=O)=NC)cc3)ccnc21` (stereo not shown) [Compound 3C, 4-(((3-chloro-1-(prop-2-yn-1-yl)-1H-pyrazolo[3,4-b]pyridin-4-yl)(methyl)amino)methyl)-N′-methylbenzenesulfonimidamide] the same measures were below 0.01 µM and 0.1 to 1 µM. For `CCn1ncc2c(NCc3ccc(S(N)(=O)=NC#N)cc3)ccnc21` (stereo not shown) [Compound 3D, N′-cyano-4-(((1-ethyl-1H-pyrazolo[3,4-b]pyridin-4-yl)amino)methyl)benzenesulfonimidamide] the same measures were below 0.01 µM and 0.1 to 1 µM. For `CCn1ncc2c(NCc3ccc([S@@](N)(=O)=NC)cc3)ccnc21` [Compound 3E, (S)-4-(((1-ethyl-1H-pyrazolo[3,4-b]pyridin-4-yl)amino)methyl)-N′-methylbenzenesulfonimidamide] the same measures were below 0.01 µM and at least 1 µM. Turning to `CCn1ncc2c(NCc3ccc([S@](N)(=O)=NC)cc3)ccnc21` [Compound 3F, (R)-4-(((1-ethyl-1H-pyrazolo[3,4-b]pyridin-4-yl)amino)methyl)-N′-methylbenzenesulfonimidamide], the IC50 is 0.1 to 1 µM in test [1] and at least 1 µM in test [2]. The corresponding values for `CCn1ncc2c(Nc3ccc(S(N)(=O)=NCC4CC4)cc3)ccnc21` (stereo not shown) [Compound 5A, N′-(cyclopropylmethyl)-4-((1-ethyl-1H-pyrazolo [3,4-b]pyridin-4-yl)amino) benzenesulfonimidamide] are 0.01 to 0.1 µM and 0.1 to 1 µM. The corresponding values for `CCn1ncc2c(Nc3ccc(S(N)(=O)=NC)cc3)ccnc21` (stereo not shown) [Compound 5B, 4-((1-ethyl-1H-pyrazolo[3,4-b]pyridin-4-yl)amino)-N′-methylbenzenesulfonimidamide] are 0.01 to 0.1 µM and at least 1 µM.

`CCn1nc(Cl)c2c(Nc3ccc(S(=N)(N)=O)cc3)ccnc21` (stereo not shown) [Compound 5C, 4-((3-chloro-1-ethyl-1H-pyrazolo[3,4-b]pyridin-4-yl)amino)benzenesulfonimidamide]: the IC50 was 0.01 to 0.1 µM in test [1] and 0.1 to 1 µM in test [2]. For `CCn1nc(Cl)c2c(Nc3ccc(S(N)(=O)=NC)cc3)ccnc21` (stereo not shown) [Compound 5D, 4-((3-chloro-1-ethyl-1H-pyrazolo[3,4-b]pyridin-4-yl)amino)-N′-methylbenzenesulfonimidamide], the IC50 in test [1] is below 0.01 µM; in test [2], 0.1 to 1 µM. For `CCN=S(N)(=O)c1ccc(Nc2ccnc3c2c(Cl)nn3CC)cc1` (stereo not shown) [Compound 5E, 4-((3-chloro-1-ethyl-1H-pyrazolo[3,4-b]pyridin-4-yl)amino)-N′-ethylbenzenesulfonimidamide] the same measures were below 0.01 µM and 0.1 to 1 µM. For the molecule `CCn1nc(Cl)c2c(Nc3ccc(S(N)(=O)=NCC4CC4)cc3)ccnc21` (stereo not shown) [Compound 5F, 4-((3-chloro-1-ethyl-1H-pyrazolo[3,4-b]pyridin-4-yl)amino)-N′-(cyclopropylmethyl)benzene sulfonimidamide], the IC50 in test [1] is below 0.01 µM; in test [2], 0.1 to 1 µM.

On to `CCn1nc(Cl)c2c(Nc3ccc(S(N)(=O)=NC#N)cc3)ccnc21` (stereo not shown) [Compound 5G, 4-((3-chloro-1-ethyl-1H-pyrazolo[3,4-b]pyridin-4-yl)amino)-N′-cyanobenzenesulfonimidamide], for which the IC50 in test [1] is 0.01 to 0.1 µM; in test [2], at least 1 µM.

Consider `CCn1nc(Cl)c2c(Nc3ccc(S(N)(=O)=NC(C)C)cc3)ccnc21` (stereo not shown) [Compound 5H, 4-((3-chloro-1-ethyl-1H-pyrazolo[3,4-b]pyridin-4-yl)amino)-N′-isopropylbenzenesulfonimidamide], for which the results for the IC50 in test [1] and in test [2] were below 0.01 µM and 0.1 to 1 µM, respectively.

As for `CCn1nc(Cl)c2c(Nc3ccc(S(N)(=O)=NC4CC4)cc3)ccnc21` (stereo not shown) [Compound 5I, 4-((3-chloro-1-ethyl-1H-pyrazolo[3,4-b]pyridin-4-yl)amino)-N′-cyclopropylbenzenesulfonimidamide], the IC50 is below 0.01 µM in test [1] and at least 1 µM in test [2]. In the case of `C#CCn1nc(Cl)c2c(NCc3ccc([S@](C)(=N)=O)cc3)ccnc21` [Compound 6A, (R)-(4-(((3-chloro-1-(prop-2-yn-1-yl)-1H-pyrazolo[3,4-b]pyridin-4-yl)amino)methyl)phenyl)(imino)(methyl)-λ^6-sulfanone], the figures for the IC50 in test [1] and in test [2] were 0.01 to 0.1 µM and at least 1 µM, respectively. Regarding `C#CCn1nc(Cl)c2c(NCc3ccc([S@@](C)(=N)=O)cc3)ccnc21` [Compound 6B, (S)-(4-(((3-chloro-1-(prop-2-yn-1-yl)-1H-pyrazolo[3,4-b]pyridin-4-yl)amino)methyl)phenyl)(imino)(methyl)-λ^6-sulfanone], the IC50 in test [1] is below 0.01 µM; in test [2], 0.01 to 0.1 µM.

Turning to `CCn1ncc2c(OCc3ccc(S(N)(=O)=NC)cc3)ccnc21` (stereo not shown) [Compound 7A, 4-(((1-ethyl-1H-pyrazolo[3,4-b]pyridin-4-yl)oxy)methyl)-N′-methylbenzenesulfonimidamide], the results for the IC50 in test [1] and in test [2] were 0.1 to 1 µM and at least 1 µM, respectively. As for `CS(=N)(=O)c1ccc(COc2ccnc3c2c(Cl)nn3CC#N)cc1` (stereo not shown) [Compound 8A, 2-(3-chloro-4-((4-(S-methylsulfonimidoyl)benzyl)oxy)-1H-pyrazolo[3,4-b]pyridin-1-yl) acetonitrile], the IC50 in test [1] was below 0.01 µM; in test [2] it was 0.1 to 1 µM. `CCn1ncc2c(NCC3CCN([S@@](C)(=N)=O)CC3)ccnc21` [Compound 14G, (R)-1-ethyl-N-((1-(S-methylsulfonimidoyl)piperidin-4-yl)methyl)-1H-pyrazolo[3,4-b]pyridine-4-amine]: the IC50 in test [2] is at least 1 µM. Same read-out and setting: the same measure for `CCn1ncc2c(NCC3CCN([S@](C)(=N)=O)CC3)ccnc21` [Compound 14H, (S)-1-ethyl-N-((1-(S-methylsulfonimidoyl)piperidin-4-yl)methyl)-1H-pyrazolo[3,4-b]pyridin-4-amine]: at least 1 µM; for `CN=[S@](N)(=O)N1CCC(CNc2ccnc3c2c(Cl)nn3CC#N)CC1` [Compound 15G, (S)-4-(((3-chloro-1-(cyanomethyl)-1H-pyrazolo[3,4-b]pyridin-4-yl)amino)methyl)-N′-methylpiperidine-1-sulfonimidamide]: 0.1 to 1 µM.
